We go through two compounds from EP3822285A1, “VARIANT NISIN PEPTIDES” (University College Cork-National University of Ireland, Cork, priority 2019, dated 2021).

In brackets after ≈: the same amount, converted by molar mass. Several values for one entry are separate records, joined by “and”; a condition that tells them apart may be missing. Equal entries are not always repeated. Marks after values point to notes of the source that are not given here.

Type in all cases: cell-based
Assay [1] has as its system S. aureus strains. As to the kind of experiment: Minimum inhibitory concentration assay, panel of S. aureus strains. To be noted: panel of 12 S. aureus isolates; compared to nisin A. Here is the method: (§1) Minimum inhibitory concentration determinations were carried out in triplicate in 96 well microtitre plates. 96 well microtitre plates were pre-treated with bovine serum albumin (BSA) prior to addition of the peptides. Briefly, to each well of the microtitre plate 200 µL of phosphate buffered saline (PBS) containing 1% (w/v) bovine serum albumin (PBS/BSA) was added and incubated at 37°C for 30 min. The wells were washed with 200 µL PBS and allowed to dry. Target strains were grown overnight in the appropriate conditions and medium, subcultured into fresh broth and allowed to grow to an OD600 of ∼0.5, diluted to a final concentration of 10^5 cfu ml^-1 in a volume of 0.2 ml. The lyophilised peptides were resuspended in the appropriate media to a stock concentration of 30 µM. Wild type nisin and nisin mutant peptides were adjusted to a 7.5 or 5.0 µM or 500 nM starting concentration and 2-fold serial dilutions of each peptide were made in 96 well plates for a total of 12 dilutions.
(§2) To confirm that the observed enhanced activity of the nisin variants was due to increased specific activity, the activity of purified peptides were assessed using classical broth-based minimum inhibitory concentration (MIC) determination assays. […] Also included were the lactic acid bacteria targets L. lactis MG1363, L. lactis spp. lactis HP, B. longum UCC44b and Lb acidophilus ATCC 4356.

The subject of assay [2] is S. aureus 272. As to the kind of experiment: Minimum inhibitory concentration assay. How it is done: as §1, §2
Assay [3] concerns S. aureus DPC 5245. As to the kind of experiment: Minimum inhibitory concentration assay. The note with it: purified peptide. Here is the method:
as §1, §2

Assay [4] deals with S. aureus ST528(MRSA). As to the kind of experiment: Minimum inhibitory concentration assay. Here is the method:
as §1, §2

Assay [5] concerns S. aureus 5971. As to the kind of experiment: Minimum inhibitory concentration assay. Here is the method: as §1, §2
The test system of assay [6] is S. aureus DPC 5247. The assay can be described thus: Minimum inhibitory concentration assay. To be noted: purified peptide. Here is the method: as §1, §2
Assay [7] relates to L. lactis HP. As to the kind of experiment: Minimum inhibitory concentration assay. Here is the method: as §1, §2
The subject of assay [8] is S. aureus DPC 5243. As to the kind of experiment: Minimum inhibitory concentration assay. To be noted: purified peptide. Here is the method: as §1, §2
Assay [9] deals with S. aureus ST534(MRSA). As to the kind of experiment: Minimum inhibitory concentration assay. Here is the method:
as §1, §2

The test system of assay [10] is S. aureus 513. The assay can be described thus: Minimum inhibitory concentration assay. The note with it: purified peptide. Here is the method: as §1, §2
The test system of assay [11] is B. longum UCC 44b. How it is done:
as §1, §2

For assay [12], the system named is Lb. acidophilus ATCC 4356. How it is done:
as §1, §2

Assay [13] deals with S. agalactiae ATCC13813. The assay can be described thus: Deferred antagonism assay. To be noted: producing strain. Here is the method:
(§3) Mutagenesis of the nisA gene was carried out as described previously (Field et al., 2008). Briefly, saturation mutagenesis was carried out using pDF05 (pCI372-nisA) as template and using oligonucleotides containing an NNK codon in place of each native codon. PCR amplification was performed in a 50 µl reaction containing approximately 0.5 ng of target DNA (pDF05), 1 unit Phusion High-Fidelity DNA polymerase (Finnzymes, Finland), 1 mM dNTPs and 500 ng each of the appropriate forward and reverse oligonucleotide. The reaction was pre-heated at 98°C for 2 min, and then incubated for 29 cycles at 98°C for 30 s, 55°C for 15 s and 72°C for 3 min 30 s, and then finished by incubating at 72°C for 3 min 30 s. Amplified products were treated with Dpn1 (Stratagene) for 60 min at 37°C to digest template DNA and purified using the QIAquick PCR purification kit. Following transformation of E. coli Top 10 cells plasmid DNA was isolated and sequenced using primers pCI372FOR (5' […] 3') and pCI372REV (5' […] 3') to verify that mutagenesis had taken place. Approximately 150 transformants were chosen at random for each position and inoculated into 96-well plates containing GM17 chloramphenicol, incubated overnight and stored at -20°C after addition of 80% glycerol. Deferred antagonism assays were performed by replicating strains on GM17 agar plates and allowing them to grow overnight before overlaying with BHI agar (0.75% w/v agar) seeded with the appropriate indicator strain.
(§4) Previously, site-saturation mutagenesis-based strategies were used to generate strains producing bioengineered nisin derivatives in which all residues not involved in lanthionine ring formation (i.e. I1, T2, 14, S5, L6, P9, G10, K12, G14, A15, L16, M17, G18, N20, M21, K22, A24, H27, S29 130, H31, V32, S33 and K34) were each randomised to potentially all other natural amino acids, or whereby all three residues of the hinge-region (NMK) were randomised simultaneously (Rouse et al., 2012, Healy et al., 2013, Field et al., 2008). […] From this screen 76 variants of interest from the first round of screening were incorporated into a "mini-bank" for subsequent further analysis. The number of indicator strains was increased from five to thirteen to include S. uberis 43382, S. uberis DPC5344, S. dysgalactiae ATCC43078, L. lactis 303, L. cremoris KH, Lactobacillus bulgaricus NCDO2489, Lb. helveticus 2079 and Lb. acidophilus ATCC4356 (Table 1). Following this second round of screening, 6 variants of interest were deemed worthy of closer inspection. DNA sequencing of the mutated nisin gene as well as mass spectrometric analysis of the peptide produced by each strain established that these corresponded to nisin M17Q (methionine at position 17 altered to glutamine), nisin T2L (threonine 2 leucine) nisin HTK, VGA, VGV or VGT (where the hinge residues Asn-Met-Lys have been altered to His-Thr-Lys, Val-Gly-Ala, Val-Gly-Val or Val-Gly-Thr respectively). […] As a result, these derivatives were eliminated from this study, but will be the subject of further investigation as potential anti-mastitis antimicrobials. […] In the case of the derivatives nisin T2L and nisin HTK, the activity appeared reduced and equivalent to nisin A respectively (Figure 1), while improved activity was observed by both derivatives against S. agalactiae ATCC13813 and S. aureus RF122 (Table 2). On this basis, the nisin derivatives M17Q, T2L and HTK were selected for purification and specific activity assays. Purified peptides were subjected to Mass Spectrometry to confirm the correct mass in each case. In the case of T2L and HTK derivatives, the threonine remained in the unmodified form (data not shown).

The test system of assay [14] is L. lactis HP. The assay can be described thus: Deferred antagonism assay. The note with it: producing strain. How it is done: as §3, §4
Assay [15] relates to L. lactis MG1363. As to the kind of experiment: Deferred antagonism assay. The note with it: producing strain. Here is the method:
as §3, §4

Assay [16] concerns S. aureus RF122. As to the kind of experiment: Deferred antagonism assay. To be noted: producing strain. Here is the method:
as §3, §4

Assay [17] deals with T. brockianus. As to the kind of experiment: Minimum inhibitory concentration assay (Thermus). To be noted: pure peptide, mean of triplicate assays. In outline:
(§5)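 Wells were first blocked with 1% BSA at 37°C for 30 min and washed twice with PBS. Castenholz medium, peptide and cells grown to OD600 ∼0.5 were then added to give ∼10^5 cfu/ml. After 3 days at 55°C, the lowest concentration with no visible growth was scored.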

Assay [18] concerns T. scotoductus SE-1. The assay can be described thus: Minimum inhibitory concentration assay (Thermus). To be noted: pure peptide, mean of triplicate assays. In outline:
as §5

Assay [19] relates to T. aquaticus. The assay can be described thus: Minimum inhibitory concentration assay (Thermus). The note with it: pure peptide, mean of triplicate assays. In outline:
as §5

The subject of assay [20] is T. thermophilus HB27. The assay can be described thus: Minimum inhibitory concentration assay (Thermus). The note with it: pure peptide, mean of triplicate assays. In outline:
as §5

The subject of assay [21] is T. rehai. The assay can be described thus: Minimum inhibitory concentration assay (Thermus). To be noted: pure peptide, mean of triplicate assays. In outline: as §5
Assay [22] relates to T. oshimai. The assay can be described thus: Minimum inhibitory concentration assay (Thermus). The note with it: pure peptide, mean of triplicate assays. In outline: as §5
Assay [23] deals with Thermus thermophilus HB27. The assay can be described thus: Agar diffusion assay with cell free supernatant of producing strains. The note with it: zone diameter relative to Nisin A wild type (100). In outline:
(§6)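 Cell-free supernatant (50 µl) from overnight nisin A or variant-producing L. lactis cultures placed in wells of Castenholz agar seeded with indicator strain. Plates incubated 55°C for 3 days; zone of clearance measured, reflecting combined peptide yield and specific activity; triplicate.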
On the technique in general: Agar diffusion results depend on both activity and mobility in agar.

The test system of assay [24] is Thermus scotoductus SE-1. The assay is described as above. The note with it: zone diameter relative to Nisin A wild type (100). In outline:
as §6

`C=C(NC(=O)[C@@H](NC(=O)[C@H](Cc1c[nH]cn1)NC(=O)[C@@H](NC(=O)[C@H](CO)NC(=O)[C@@H]1CS[C@@H](C)[C@H]2NC(=O)[C@H](C)NC(=O)[C@H](NC(=O)[C@H](CCCCN)NC(=O)[C@H](CCSC)NC(=O)[C@H](CC(N)=O)NC(=O)[C@@H]3CS[C@@H](C)[C@@H](NC(=O)[C@H](CCCCN)NC(=O)[C@@H]4CS[C@@H](C)[C@@H](NC(=O)[C@@H]5CSC[C@@H](NC(=O)[C@H](CC(C)C)NC(=O)[C@@H](N)[C@@H](C)CC)C(=O)N[C@@H]([C@@H](C)CC)C(=O)NC(=C)C(=O)N[C@@H](CC(C)C)C(=O)N5)C(=O)N5CCC[C@H]5C(=O)NCC(=O)N4)C(=O)NCC(=O)N[C@@H](C)C(=O)N[C@@H](CC(C)C)C(=O)N[C@@H](CCSC)C(=O)NCC(=O)N3)[C@H](C)SC[C@H](NC2=O)C(=O)N[C@@H](Cc2c[nH]cn2)C(=O)N1)[C@@H](C)CC)C(C)C)C(=O)N[C@@H](CCCCN)C(=O)O` [T2L, nisin T2L]: the “number of S. aureus strains with enhanced specific activity” value in [1] is listed as 9. The fold enhanced activity in [2] (compared to nisin A) is on record as 4 fold; in [4] (S. aureus ST528 (MRSA), compared to nisin A), 4 fold; in assay [9] (S. aureus ST 534 (MRSA), compared to nisin A) it was 4 fold. For the same compound, the “Specific activity (MIC)” value was 0.75 Mg/L and 0.234 µM in assay [2] (purified peptide); 0.5 Mg/L and 0.156 µM in assay [3]; 0.125 Mg/L and 0.039 µM in [4] (S. aureus ST528(MRSA), purified peptide); 1.5 Mg/L and 0.468 µM in [5] (purified peptide); 0.5 Mg/L and 0.156 µM in assay [6]; 0.4 Mg/L and 0.125 µM in [7] (purified peptide). The “Specific activity (MIC)” value was 0.5 Mg/L and 0.156 µM in [8]; 0.25 Mg/L and 0.078 µM in assay [9] (S. aureus ST534(MRSA), purified peptide); 3 Mg/L and 0.937 µM in assay [10]; 0.12 Mg/L and 0.044 µM in assay [12] (purified peptide). In assay [5] (compared to nisin A), this compound gave a fold improved activity of 16 fold. For the same compound, the “fold reduction in potency” value in [7] (compared to wild-type nisin A) stood at 2 fold. Besides, the “fold decreased activity compared to wild type peptide” value in assay [11] is 2 fold. Besides, the “fold reduction in specific activity compared to wild type nisin A” value in assay [12] was 4 fold. Further, the “zone of inhibition (area of the zone of inhibition minus the area of the spot)” value in [13] is recorded as 194.44 ± 6.22 mm2; in assay [14], 134.12 ± 19.00 mm2; in assay [15], 80.11 ± 12.18 mm2; in assay [16], 100.05 ± 14.96 mm2.

A word on the MIC: it is the lowest concentration that inhibits growth of the organism. A higher MIC goes with a less susceptible organism. In the case of `C=C(NC(=O)[C@@H](NC(=O)[C@H](Cc1c[nH]cn1)NC(=O)[C@@H](NC(=O)[C@H](CO)NC(=O)[C@@H]1CS[C@@H](C)[C@H]2NC(=O)[C@H](C)NC(=O)[C@H](NC(=O)[C@H](C)NC(=O)CNC(=O)[C@@H](NC(=O)[C@@H]3CS[C@@H](C)[C@@H](NC(=O)[C@H](CCCCN)NC(=O)[C@@H]4CS[C@@H](C)[C@@H](NC(=O)[C@@H]5CSC[C@@H](NC(=O)/C(=C/C)NC(=O)[C@@H](N)[C@@H](C)CC)C(=O)N[C@@H]([C@@H](C)CC)C(=O)NC(=C)C(=O)N[C@@H](CC(C)C)C(=O)N5)C(=O)N5CCC[C@H]5C(=O)NCC(=O)N4)C(=O)NCC(=O)N[C@@H](C)C(=O)N[C@@H](CC(C)C)C(=O)N[C@@H](CCSC)C(=O)NCC(=O)N3)C(C)C)[C@H](C)SC[C@H](NC2=O)C(=O)N[C@@H](Cc2c[nH]cn2)C(=O)N1)[C@@H](C)CC)C(C)C)C(=O)N[C@@H](CCCCN)C(=O)O` [VGA, nisin VGA], the MIC in assay [17] is recorded as 0.125 µM (≈ 0.401 µg/mL); in [18] it was 0.125 µM (≈ 0.401 µg/mL); in assay [19], 0.0156 µM (≈ 0.05 µg/mL); in assay [20], 0.0312 µM (≈ 0.1 µg/mL); in [21], 0.125 µM (≈ 0.401 µg/mL); in assay [22], 0.0156 µM (≈ 0.05 µg/mL). The “zone of inhibition (area of the zone of inhibition minus the area of the spot)” value is on record as 234.96 ± 25.45 mm2 in [13], 362.16 ± 6.77 mm2 in assay [14], 230.92 ± 4.04 mm2 in assay [15] and 138.17 ± 8.12 mm2 in assay [16]. Also, the “% difference” value in assay [23] is given as 169* (0.0002) %. In [24], the “% of wild type” value is reported as 127* (0.022) %.
